Experiments:
[1] = test system: human colon adenocarcinoma, MDR positive (HCT-15) cells; assay: 48-hour cellular proliferation assay (sulforhodamine staining, 96-well microtitre format); format: cell-based; settings: 48 hours in culture, 0% = DMSO control, 100% = trichloroacetic acid-treated well; for inhibition at 100 µM: Homo sapiens, HCT-15, 10^-4M compound
Experimental: (§1) Compounds of this invention were tested in a 48-hour cellular proliferation assay which uses human colon adenocarcinoma, MDR positive (HCT-15) cells, and human lung large cell carcinoma, MDR negative (NCI-H460) cells, in the 96-well microtitre format described in Skehan P., et al. New Colorimetric Cytotoxicity Assay for Anticancer Drug Screening. 1990, J. Natl. Cancer Inst. 82:1107-1112. Briefly, the wells of a microtitre plate were charged sequentially with cultured cells and compounds of the invention (1.0 x 10^-4 to 1.0 x 10^-11 M in 10% DMSO prepared by dissolving compounds of the invention in DMSO and adding 11 µL of the DMSO solution to 100 µL of culture medium for a final DMSO concentration of 10%). Two of the following controls were also present in each microtitre plate: a solvent (DMSO) control without drug that yielded a 0% inhibition level and a trichloroacetic acid-treated well that yielded a 100% inhibition level. The cells were grown in culture (37 °C, 5% CO2 atmosphere) for 48 hours then fixed by the addition of trichloroacetic acid. The wells were stained with sulforhodamine, washed with 1% acetic acid, and treated with 0.01 M tris buffer (100 µL) to solubilize the adherent dye. The absorbance of the dye solution was measured with a Molecular Devices SpechaMax340 plate reader. The percent inhibition values were obtained by calculating the proportional response of the experimental values to the absorbance values of the controls.

[2] = test system: human lung large cell carcinoma, MDR negative (NCI-H460) cells; assay: as above; format: cell-based; settings: 10^-4M compound, 48 hours in culture, 0% = DMSO control, 100% = trichloroacetic acid-treated well; for inhibition at 100 µM: Homo sapiens, read-out: NCI-460 % inhibition at 10^-4M
Experimental: as §1

Compound | inhibition at 100 µM [1] [%] | inhibition at 100 µM [2] [%] | HCT-15 % inhibition at 10^-4M ([1]; 10^-4M compound) [%] | NCI-460 % inhibition at 10^-4M [2] [%]
COc1ccc(S(=O)(=O)Nc2cc(OC)c(OC)c(OC)c2)cc1 [Example 1, 4-methoxy-N-(3,4,5-trimethoxyphenyl)benzenesulfonamide] | 99.4 | 98.5 |  | 
COc1cc(NS(=O)(=O)c2ccc3c(c2)CCN3C=O)cc(OC)c1OC [Example 2, 1-formyl-N-(3,4,5-trimethoxyphenyl)indoline-5-sulfonamide] | 79.9 | 74 |  | 
COc1cc(NS(=O)(=O)c2ccc3c(c2)CCN3)cc(OC)c1OC [Example 3, N-(3,4,5-trimethoxyphenyl)indoline-5-sulfonamide] | 86.2 | 59.3 |  | 
COc1cc(NS(=O)(=O)c2c[nH]c3ccc([N+](=O)[O-])cc23)cc(OC)c1OC [Example 4, 5-nitro-N-(3,4,5-trimethoxyphenyl)-1H-indole-3-sulfonamide] | 15.9 | 41.7 |  | 
COc1cc(NS(=O)(=O)c2ccc3c(c2)CCN3C)cc(OC)c1OC [Example 5, 1-methyl-N-(3,4,5-trimethoxyphenyl)indoline-5-sulfonamide] | 97.6 | 96.1 |  | 
COc1cc(NS(=O)(=O)c2cn(C)c3ccc([N+](=O)[O-])cc23)cc(OC)c1OC [Example 6, 1-methyl-5-nitro-N-(3,4,5-trimethoxyphenyl)-1H-indole-3-sulfonamide] | 50.6 | 45.5 |  | 
COc1cc(NS(=O)(=O)c2cn(C)c3ccc(N)cc23)cc(OC)c1OC [Example 7, 5-amino-1-methyl-N-(3,4,5-trimethoxyphenyl)-1H-indole-3-sulfonamide] | 91.9 | 87 |  | 
COc1cc(NS(=O)(=O)c2c[nH]c3ccc(N)cc23)cc(OC)c1OC [Example 8, 5-amino-N-(3,4,5-trimethoxyphenyl)-1H-indole-3-sulfonamide] | 37 | < 9.1 |  | 
COc1cc(NS(=O)(=O)c2ccc3[nH]ccc3c2)cc(OC)c1OC [Example 9, N-(3,4,5-trimethoxyphenyl)-1H-indole-5-sulfonamide] | 94.1 | 89.1 |  | 
COc1cc(NS(=O)(=O)c2ccc3c(ccn3C)c2)cc(OC)c1OC [Example 10, 1-methyl-N-(3,4,5-trimethoxyphenyl)-1H-indole-5-sulfonamide] | 100 | 100 |  | 
COc1cc(N(C)S(=O)(=O)c2ccc3c(ccn3C)c2)cc(OC)c1OC [Example 11, N,1-dimethyl-N-(3,4,5-trimethoxyphenyl)-1H-indole-5-sulfonamide] | 100 | 99.9 |  | 
COc1cc(S(=O)(=O)Oc2ccc3[nH]ccc3c2)cc(OC)c1OC [Example 15, 1H-indol-5-ol,(3,4,5-trimethoxybenzenesulfonate) ester] |  |  | 100.0 | 100.0
COc1cc(S(=O)(=O)Oc2ccc3c(ccn3C)c2)cc(OC)c1OC [Example 16, 1-methyl-1H-indol-5-yl 3,4,5-trimethoxybenzenesulfonate] | 100 | 100 |  | 
